We go through 23 compounds from ChEMBL document CHEMBL3132843, “Discovery of novel inhibitors for human farnesyltransferase (hFTase) via structure-based virtual screening” (Medchemcomm, 2013).

For test [1], the target named is Protein farnesyltransferase (Homo sapiens, UniProt P49354+P49356). The test can be described thus: Inhibition of human FTase using farnesyl pyrophosphate as substrate by fluorescent assay. The format is protein-complex assay.
A further test deals with MCF7. Put plainly: Cytotoxicity against human MCF7 cells after 48 hrs by MTT assay. The format is functional, cell-based. Conditions: MCF7, 48 h.

Take `Oc1ccc(NCc2cc(Cl)ccc2OCc2ccccc2F)cc1`: the values for the IC50 (in test [1]; with MCF7) were 4.21 µM and 12.2 µM, respectively.
In the same order, the values of `Cc1cccc(Oc2ccc(NC(=O)c3ccccc3C(=O)O)cc2)c1C` are 6.9 µM and greater than 100 µM.
Regarding `CCN(CC)c1ccc(/C=N/Nc2nc(NCc3ccco3)nc(Nc3ccc(OC)cc3)n2)c(OCc2ccc(Cl)cc2Cl)c1`, the IC50 was 0.0515 µM in test [1] and greater than 100 µM in the test on MCF7.
Consider `COc1cc(/C=C2\S/C(=N\c3ccccc3)N(Cc3ccco3)C2=O)ccc1OC(C)C(=O)O` (stereo unspecified), for which the IC50 in test [1] is 5.14 µM; in the test with MCF7, greater than 100 µM.
With `Cc1ccc(Oc2ncccc2NC(=O)CCCC(=O)O)c2c1CCC2`, the values for the IC50 (in test [1]; with MCF7) were 5.4 µM and greater than 100 µM, respectively.
In the case of `Cc1ccc(OC(=O)c2ccc3c(c2)C(=O)N(c2cccc4ccccc24)C3=O)cc1`, the IC50 in test [1] is 0.44 µM; with MCF7 it was greater than 100 µM.
Turning to `Cn1cncc1[C@@](N)(c1ccc(Cl)cc1)c1ccc2c(c1)c(-c1cccc(Cl)c1)cc(=O)n2C` [TIPIFARNIB], the IC50 in test [1] stood at 0.003 µM; in the test with MCF7, 3.08 µM.
With `CCOC(=O)c1c(C)oc2c1cc(NS(=O)(=O)c1ccc(C(=O)O)cc1)c1ccccc12`, the IC50 amounted to 3.89 µM in test [1] and 46.7 µM in the test on MCF7.
In the case of `COc1cc(CNc2ccc(O)cc2)cc(Cl)c1OCc1ccc(Cl)cc1`, the IC50 in test [1] turned out to be 2.57 µM; in the test on MCF7, 20.5 µM.
Take `Cc1cncc(NC(c2cccc(OCc3ccccc3)c2)c2ccc3cccnc3c2O)c1` (stereo unspecified): the IC50 in test [1] stood at 0.0489 µM; in the test on MCF7 it was 14.3 µM.
Regarding `Cc1c(Cc2ccccc2)sc(CC(=O)CCC(=O)O)c1C(N)=O`, the IC50 was 3.52 µM in test [1] and greater than 100 µM with MCF7.
`COc1ccc(-c2cc(C(=O)OCC(=O)c3cccc4ccccc34)c3ccccc3n2)cc1`: the IC50 in test [1] is 0.37 µM; with MCF7, greater than 100 µM.
`COCCN1C(=O)C(O)=C(C(=O)c2ccc(C)cc2)C1c1cccc(Oc2ccccc2)c1` (stereo unspecified): the results for the IC50 (in test [1]; in the test with MCF7) were 8.8 µM and greater than 100 µM, respectively.
Turning to `COc1cccc(C2C(C(=O)/C=C/c3ccccc3)=C(O)C(=O)N2c2ccccc2)c1` (stereo unspecified), the results for the IC50 (in test [1]; in the test with MCF7) were 1.46 µM and greater than 100 µM, respectively.
For the compound `O=C(O)c1ccc(/N=[N+](/[O-])c2ccccc2Sc2ccccc2C(=O)O)cc1Sc1ccccc1O`, the IC50 was 3.22 µM in test [1] and greater than 100 µM in the test on MCF7.
In the same order, the values of `Oc1cccc2ccc(/C=C/c3ccccc3OCc3ccccc3Cl)nc12` are 0.0119 µM and greater than 100 µM.
In the same order, the values of `CC1=NN(c2ccccc2)C(=O)/C1=C/c1ccccc1OCc1ccc(C(=O)O)cc1` are 2.58 µM and 38.9 µM.
With `O=C(c1ccc(Cl)cc1)N1N=C(c2c(-c3ccccc3)c3cc(Br)ccc3[nH]c2=O)CC1c1ccco1` (stereo unspecified), the IC50 in test [1] was 0.52 µM; in the test with MCF7, 32.2 µM.
On to `Cc1ccc(Oc2ncccc2NC(=O)CC(CC(=O)O)c2ccccc2)c2c1CCC2` (stereo unspecified), for which the values for the IC50 (in test [1]; in the test with MCF7) were 13.3 µM and greater than 100 µM, respectively.
`O=C(N/N=C\c1cn(Cc2ccc([N+](=O)[O-])cc2)c2ccccc12)c1cc2ccccc2o1`: the IC50 in test [1] is 0.14 µM; with MCF7, greater than 100 µM.
As for `O=C(c1ccccc1)c1ccc(/N=C/c2cc([N+](=O)[O-])ccc2O)cc1`, the IC50 is 11 µM in test [1] and greater than 100 µM with MCF7.
Regarding `N#Cc1c(SCc2ccc(C(=O)O)cc2)nc2c(c1-c1ccccc1)CCC2`, the results for the IC50 (in test [1]; in the test on MCF7) were 5.6 µM and greater than 100 µM, respectively.
`O=C(O)C1CCCCC1C(=O)Nc1ccc(Oc2ccccc2)cc1` (stereo unspecified): the figures for the IC50 (in test [1]; with MCF7) were 3.56 µM and greater than 100 µM, respectively.

As a reminder, the IC50 is the midpoint of a concentration-inhibition curve. High values mean a need for much substance, low ones inhibition by little substance.
